Series [1] is described as follows: Dynamic light scattering (DLS) size distribution of self-assembled peptide nanoparticles. It is filed as physicochemical. The settings on record: for average hydrodynamic diameter / polydispersity index (PDI): DLS. From the text: Self-assembling peptides (e.g., FF and YF peptides as shown in Table 1 and FIG. 1, each with a sequence of 10 amino acids in length) were each prepared by FMOC solid-phase peptide synthesis, for example, on Wang resin and cleaved from the resin with a solution mixture of trifluoroacetic acid/triisopropylsilane/water in a volume ratio of […]. The synthesized peptides were then purified by reversed phase HPLC. These peptide constructs were selected to represent bulky aliphatic and aromatic amino acid residues. […] The peptide concentration of the resulting mixture was about 2.5 mg/mL to about 100 mg/mL. The mixture was stirred at about 200 rpm to about 300 rpm for about 5 mins. The stirring speed can be varied to control size homogeneity. […] Accordingly, the size of the nanostructures can be, at least in part, controlled by the sequence of the amino acid construct.
The self-assembled peptide nanoparticles formed (e.g., from FF or YF peptides) in cold water (cold deionized water) as shown in Example 2 were stable for about 2 hours before they eventually disaggregated as determined by DLS. To increase the stability of FF and YF, a solvent injection protocol was used. […] Different concentrations and/or types of salts could be used to prepare the saline solution, depending on the solubility of the peptide constructs in the respective solution. In some embodiments, any buffer solution such as PBS, acetate, succinate and citrate buffer could be used instead. The resulting particles size varied with peptide concentration from about 5 mg/ml to about 50 mg/ml with low polydispersities (FIGS. 4A-4B). By addition of 0.9% NaCl in the cold solution, the stability of the particles was increased from about 2 h to about 24 h as determined by DLS. […] Thus, in one embodiment, the average size of the nanoparticles can be controlled by simply varying the temperature of the formulation buffere, e.g., at room temperature or under cold ˜2-4° C. conditions.
Each peptide was dissolved in distilled deionized water at varying concentrations, which can, in part, control particle size. Mixtures of ˜80 mg/mL, ˜50 mg/mL, and ˜20 mg/mL peptide concentration were each stirred vigorously (e.g., using a magnetic stirrer) for about 10 mins at room temperature or at about 4° C. Nanoparticles were measured, e.g., by dynamic light scattering (DLS), to be in the range from about 50 nm to about 2 μm.
A zeta particle size analyzer (Malvern instruments, UK) operating with a HeNe laser, and a 173° back scattering detector was used to determine the size distribution of the nanoparticles. Samples were prepared at 80 mg/mL, 50 mg/mL, and 20 mg/mL in water and measured directly by dynamic light scattering measurement (n=3 per condition). Malvern instrument software or Microsoft Excel was used to analyze the acquired data.

Series [2] is described as follows: Stability of self-assembled peptide nanoparticles determined by DLS. It is filed as physicochemical. The settings on record: for time particles stable before disaggregation: formed in cold deionized water; for time particles stable before disaggregation / particle stability: DLS; for particle stability compared to FF and YF constructs: function of residue at X4, data not shown. Here is the method: The self-assembled peptide nanoparticles formed (e.g., from FF or YF peptides) in cold water (cold deionized water) as shown in Example 2 were stable for about 2 hours before they eventually disaggregated as determined by DLS. To increase the stability of FF and YF, a solvent injection protocol was used. That is, the peptide constructs were dissolved in an organic solvent (e.g., but not limited to, DMSO, acetone, ethanol, dioxane, acetonitrile, methanol, and THF) at ˜150 mg/ml and a fixed volume was then injected in cold saline solution (e.g., but not limited to, ˜0.9% NaCl) while stirring. Different concentrations and/or types of salts could be used to prepare the saline solution, depending on the solubility of the peptide constructs in the respective solution. In some embodiments, any buffer solution such as PBS, acetate, succinate and citrate buffer could be used instead. The resulting particles size varied with peptide concentration from about 5 mg/ml to about 50 mg/ml with low polydispersities (FIGS. 4A-4B). By addition of 0.9% NaCl in the cold solution, the stability of the particles was increased from about 2 h to about 24 h as determined by DLS. […] Thus, in one embodiment, the average size of the nanoparticles can be controlled by simply varying the temperature of the formulation buffere, e.g., at room temperature or under cold ˜2-4° C. conditions.
In some embodiments, the nanoparticles can be formed by a process, which comprises dissolving an isolated peptide described herein (e.g., example peptides shown in Tables 1-2) in organic solvents such as DMSO at high concentration (e.g., about 400 mg/mL) and injecting a fixed volume of the dissolved peptides in cold saline (e.g., ˜0.9% sodium chloride solution) while stirring. The cold precipitation method (e.g., using a cold saline medium) can more efficiently induce peptide self-assembly. In some embodiments, the cold precipitation method (e.g., using a cold saline medium) can improve particle stability, e.g., from about 2 hours (e.g., when particles were formed by simply mixing the isolated peptides at a specified temperature) to about 24 hours (where the particles were formed by cold saline precipitation method described herein).
To further improve stability of nanoparticles, stability of the resulting particles was investigated as a function of amino acid residue at the X4 position as indicated in Table 1 (entry 3-7) and X4 position as indicated in FIG. 1. […] For example, as shown in FIG. 4E and FIG. 5, the particles self-assembled from the YF peptides or Y peptides can be stable for at least about 120 hours or longer when formed in the formulation buffer (e.g., ˜0.9% NaCl), e.g., using the cold precipitation method described earlier. Without wishing to be bound by theory, this increase in stability is likely, in part, due to the tyrosine residue at position X4 that can be stabilized by the free amine at the N-terminus.

The nature of series [3]: Encapsulation of hydrophobic (Nile Red) and hydrophilic (Calcein) dyes in peptide nanoparticles. Conditions: YF ~25 mg/mL in cold saline. It is filed as physicochemical. As to the method:
Nile Red (NR) a hydrophobic dye and Calcein, hydrophilic dyes were used as model agents for hydrophobic and hydrophilic drugs or molecules, respectively. For example, YF was dissolved in DMSO to make a stock concentration of about 380 mg/mL. Stock solutions of Nile red and Calcein dyes were each prepared in DMSO at about 3 mg/ml and about 20 mg/mL, respectively. A mixture of YF (about 380 mg/ml) and at least one model agent (e.g., Nile red (0.28 mg/mL) and/or Calcein (1.8 mg/mL)) was added to a formulation buffer, e.g., cold saline (e.g., about 0.3 mL) and mixed, e.g., by manual pipetting. The final ratios of peptide to dyes were ˜25 mg/ml to ˜0.02 mg/ml (YF:NR) and ˜25 mg/mL to ˜0.124 mg/mL (YF:calcein). In some embodiments, about 20-30% of each dye was encapsulated within self-assembling YF nanoparticles.
The peptide nanostructures (e.g., peptide nanoparticles (NP)) were visualized by fluorescence microscopy using the hydrophobic dye, Nile Red, which has a strong emission at […] when present in a lipid-rich environment and excited at ˜485 nm, or the hydrophilic dyes, calcein (excitation/emission 495 nm/515 nm) and FITC-Dextran (excitation/emission 495 nm/521 nm). […] An aliquot of ˜10 μL solution was then added to a glass cover slip for visualization using fluorescence microscopy (TIRF DM1600).

Series [4] can be described thus: Cell viability (CellTiter-Blue) of cells cultured with peptides / peptide nanoparticles. It is filed as cell-based. The settings on record: mouse, murine breast cancer cells (4T1 and M6 cells); after at least about 24 hours or longer in culture; data not shown; read-out: viable cells. As to the method: The viability of cells incubated with various concentrations of peptide constructs and/or resulting peptide nanoparticles were evaluated.
To assess effects of the peptides and/or peptide nanostructures described herein on cell viability, cells were grown to confluence in gelatin 96-well plates, following which they were either left untreated or treated with blank or one or more embodiments of the peptide nanoparticles (˜25 mg/ml) for about 18 hours. CellTiter-Blue® reagent was then added to each well and, following 4 hour incubation at ˜37° C., the fluorescence signal was measured using a fluorescence multiwell plate reader (Victor3™, PerkinElmer, Mass., USA). All fluorescent intensity measurements were then normalized with respect to the untreated 4T1 mouse mammary carcinoma cells.
(Alamar Blue is a resazurin reagent that responds to reducing activity.)

Series [5] can be described thus: Biodistribution of Alexa 750-loaded nanoparticles after tail vein injection. Conditions: mice. It is filed as in vivo. Here is the method: FIG. 11 is a line graph showing biodistribution of YF nanoparticles in mice within 2 hours after injection. An imaging dye (e.g., Alexa 750 dye) was encapsulated in the YF nanoparticles and administered to the mice by tail vein injection.
Chemical and physical properties of the resulting nanoparticles, including size, surface charge, and surface chemistry, are important factors that determine their pharmacodynamics and biodistribution, which define their efficacy to deliver an agent and toxicity. Accordingly, it was next sought to determine tissue distribution of these resulting nanoparticles. Specifically, Alexa 750 dye was encapsulated in YF nanoparticles and administered to mice by tail vein injection. At intervals of 0.5, 1.0, and 2.0 hours, the animals were euthanized, then dissected. […] These nanoparticles can potentially eliminate the need for expensive spraying approach in aerosol delivery.

Where [6] appears, read: formed in cold saline (~0.9% NaCl), solvent injection, FF ~50 mg/mL, YF ~5 mg/mL.
The mark [7] stands for this setting: formed in cold saline, FF ~50 mg/mL, YF ~5 mg/mL.
Where [8] appears, read: self-assembled in cold deionized water.
Setting [9] is: formed in cold saline, FIG. 4E, FIG. 5.

Residues, ends and D or L forms follow the SMILES beside them.

On to IPGYG, for which the “size distribution (monodispersity) relative to other substituted peptides” value in series [1] (DMSO stock ~380 mg/mL injected in cold saline ~2-4 °C, final ~25 mg/mL, FIG. 14) is “more monodisperse”.

On to `CC(C)[C@H](N)C(=O)N1CCC[C@H]1C(=O)NCC(=O)N[C@@H](Cc1ccc(O)cc1)C(=O)NCC(=O)N[C@H](C(=O)N1CCC[C@H]1C(=O)NCC(=O)N[C@@H](Cc1ccccc1)C(=O)NCC(=O)O)C(C)C` [YF, VPGYGVPGFG] (H-VPGYGVPGFG-OH), for which the average hydrodynamic diameter in series [1] (setting [6]) is listed as 600 nm; in series [1] (setting [8]), approximately 900 nm. In addition, the entries for the “polydispersity index (PDI)” value in series [1] (setting [7]) and in series [1] (setting [8]) were 0.07 and 0.33, respectively. Also, the “time particles stable before disaggregation” value in series [2] is reported as “about 2 hours”. The particle stability entry in series [2] (setting [9]) is recorded as “at least 5 days”. Moreover, the “fraction of each dye encapsulated” value in series [3] is 20-30%. Besides, the viability in series [4] was more than 80%. The “tissue distribution: lungs” value in series [5] (0.5-2.0 hours) is “greater deposition of the nanoparticles in the lungs”. The “time high fluorescence levels detected and maintained in vivo” value in series [5] (Alexa 750 encapsulated, FIG. 11) is on record as “at least 2 hours”. The “tissue distribution: brain / blood-brain-barrier” value in series [5] (fluorescence in brain) was “cross the blood-brain-barrier and deposit in the brain”.

VPGFGVPGYG [FY]: the “particle stability compared to FF and YF constructs” value in series [2] is given as “did not show a significant increase in stability”.

The compound VPGFGVPGFG [FF] came in with an average hydrodynamic diameter in series [1] (setting [6]) of approximately 191 nm. For the same compound, the “polydispersity index (PDI)” value is listed as 0.18 in series [1] (setting [7]) and 0.27 in series [1] (setting [8]). For the same compound, the “time particles stable before disaggregation” value in series [2] is reported as “about 2 hours”. Further, in series [2] (formed in cold saline (~0.9% NaCl), cold precipitation method), the particle stability is approximately 24 h.

As to VPGFGVPGWG [FW], the “particle stability compared to FF and YF constructs” value in series [2] is “did not show a significant increase in stability”.

With VPGWGVPGFG [WF], the “particle stability compared to FF and YF constructs” value in series [2] is on record as “did not show a significant increase in stability”.

In turn, `CC(C)[C@H](N)C(=O)N1CCC[C@H]1C(=O)NCC(=O)N[C@@H](Cc1ccc(O)cc1)C(=O)NCC(=O)O` [Y, VPGYG] (H-VPGYG-OH) had a particle stability in series [2] (setting [9]) not below 120 h. For the same compound, the viability in series [4] is more than 80%.

The record behind these values is patent US20150218252A1, “SELF-ASSEMBLING PEPTIDES, PEPTIDE NANOSTRUCTURES AND USES THEREOF” (President and Fellows of Harvard College, priority 2012, published 2015).
